Laboratory results as given in patent publication US9643967B2, “Pyrrolo[3,2-c]pyridine derivatives as TLR inhibitors” (TAKEDA PHARMACEUTICAL COMPANY LIMITED, priority 2013, dated 2017).
Like-named read-outs stand apart in the source and are kept apart here.

Molecular target: T1, mTLR7 (Mus musculus, UniProt P58681)
T1 construct: Splenocytes isolated from male C57/BL6 mice; from tissue; host or cells: splenocytes from the spleen of male C57BL/6 mice
T1 sequence (P58681 27-1050): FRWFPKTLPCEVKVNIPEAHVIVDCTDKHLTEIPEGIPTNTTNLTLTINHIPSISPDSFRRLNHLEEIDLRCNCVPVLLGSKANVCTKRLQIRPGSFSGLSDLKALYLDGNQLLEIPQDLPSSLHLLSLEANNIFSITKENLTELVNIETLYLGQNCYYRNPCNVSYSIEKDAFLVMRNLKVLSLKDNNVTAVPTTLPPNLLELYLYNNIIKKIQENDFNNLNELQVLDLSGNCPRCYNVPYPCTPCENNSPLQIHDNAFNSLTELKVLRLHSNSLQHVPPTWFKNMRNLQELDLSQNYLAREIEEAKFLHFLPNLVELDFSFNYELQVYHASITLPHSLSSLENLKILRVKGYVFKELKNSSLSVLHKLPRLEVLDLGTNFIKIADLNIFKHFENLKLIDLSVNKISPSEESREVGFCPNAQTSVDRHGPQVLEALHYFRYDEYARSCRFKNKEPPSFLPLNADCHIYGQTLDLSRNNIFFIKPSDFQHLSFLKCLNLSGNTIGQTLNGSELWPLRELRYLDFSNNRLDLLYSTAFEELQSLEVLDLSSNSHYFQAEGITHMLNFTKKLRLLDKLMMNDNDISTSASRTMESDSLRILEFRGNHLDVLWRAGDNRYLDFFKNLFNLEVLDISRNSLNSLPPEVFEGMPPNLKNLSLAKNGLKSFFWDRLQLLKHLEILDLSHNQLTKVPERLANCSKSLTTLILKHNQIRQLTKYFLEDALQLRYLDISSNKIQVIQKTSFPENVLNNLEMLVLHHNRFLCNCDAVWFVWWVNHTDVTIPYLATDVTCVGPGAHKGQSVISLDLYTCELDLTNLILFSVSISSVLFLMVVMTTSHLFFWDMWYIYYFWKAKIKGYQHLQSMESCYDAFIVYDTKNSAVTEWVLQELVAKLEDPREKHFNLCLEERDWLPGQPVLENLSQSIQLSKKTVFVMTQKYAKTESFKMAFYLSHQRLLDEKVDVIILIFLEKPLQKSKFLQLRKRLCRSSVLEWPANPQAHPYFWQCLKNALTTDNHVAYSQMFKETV
Assay: mTLR7 antagonism (IL-6 and TNF-α release assay) in mouse splenocytes, R0006/DOTAP stimulated
Format: cell-based
Settings: 1 μM, mouse splenocytes
Text: mTLR9 and mTLR7 Antagonism (Cytokine Release Assay) in Mouse Splenocytes
TLR7 ligand R0006 (IDT, 5′-rU*rU*rG*rU*rU*rG*rU*rU*rG*rU*rU*rG*rU*rU*rG*rU*rU*rG*rU*rU-3′ (SEQ ID NO:1)), Liposomal transfection reagent—DOTAP (Roche, Cat. No. 11202375001), TLR9 ligand CpG ODN2006 (Sequence: T*C*G*T*C*G*T*T*T*T*G*T*C*G*T*T*T*T*G*T*C*G*T*T; *=phosphorothioate (SEQ ID NO:2)) DMSO (Sigma, D2650), RPMI Powder (Sigma, R6504), Fetal Bovine Serum (Gibco, 10270), Dulbecco's Phosphate Buffered Saline (Sigma, D1408), 96 well plate (Flat bottom, Costar 3599), ELISA kit for IL-6 (EBioscience, 88-7064-77 and TNFa (EBioscience, 88-7346-88), MACS Buffer (AutoMACS Rinsing Solution (Miltenyl Biotec, 130-091-222)+0.05% BSA), RBC lysis buffer (0.85% NH4Cl), 40 μm cell strainer (BD Falcon, 352340) Method: A. Isolation of Mouse Splenocytes
Mouse spleen was isolated from C57BL6 mouse and stored in 1× chilled PBS buffer until further processed. Spleen was transferred to a sterile petriplate and chopped in to 5-6 pieces in presence of MACS buffer (100 μl) with the help of fresh surgical blade and crushed with flat plunger of a sterile syringe. A uniform suspension was prepared by passing cells through a 40 μm cell strainer. Cells were centrifuged at 450×g for 5 minutes at 4° C., supernatant was discarded and pellet dislodged gently, resuspended in 2 ml of pre-warmed (37° C.) RBC lysis buffer at room temperature with continuous gentle mixing with 1 ml pipette. Lysis buffer was neutralized with 12 ml of chilled MACS buffer and cells were passed through 40 μm cell strainer. Cell suspension was collected in 15 ml MACS buffer and centrifuged at 450×g for 5 minutes at 4° C. Pellet was resuspended in 15 ml MACS buffer and centrifuged at 400×g for 5 minutes. Cells were resuspended in 10 ml of RPMI complete medium and viability was estimated by Trypan blue method.
mTLR7 Antagonism (IL-6 and TNF-α Release Assay):
1 mg/ml stock of R0006 was prepared in sterile, endotoxin-free water. R0006 stock was diluted 10 fold with DOTAP and incubated for 30 minutes to form liposome complex (100 μg/ml of R0006). This complex was further diluted 10 fold with incomplete RPMI media (10 μg/ml of R0006) to achieve the final agonist concentration of 1 μg/ml. DOTAP alone was diluted 10 fold in incomplete RPMI media. NCEs were added in a concentration range of 30 μM to 1 nM in respective wells of assay plate, assay medium containing 0.3% DMSO were added to control wells. 0.2 million splenocytes were added to all the wells and incubated at 37° C. in 5% CO2 incubator for 30 minutes. 1 μg/ml of respective agonist was added to all the wells except those were assigned as negative controls and mixed thoroughly. DOTAP was added to negative control wells and incubated overnight at 37° C./5% CO2. The plate was centrifuged at 450×g for 5 minutes at room temperature and the supernatant was collected. ELISA was performed as per manufacturer's protocol. S/B Ratio, % Activity and % Inhibition was calculated using MS Excel. IC50 and inhibition curve was generated using Graph Pad Prism.

[1] = IL-6 release, read-out: mTLR7 inhibitory activity (% at 1 μM), IL-6
[2] = TNF-α release, read-out: mTLR7 inhibitory activity (% at 1 μM), TNF-α

Cc1cc2[nH]c(CN3CCOCC3)cc2c(-c2ccc(N3CCN(C(C)C)CC3)cc2)n1 [Example A4, 4-[[4-[4-[4-isopropylpiperazin-1-yl)phenyl]-6-methyl-1H-pyrrolo[3,2-c]pyridin-2-yl]methyl] morpholine]
inhibition at 1 µM [1]: 100% | inhibition at 1 µM [2]: 100%

CC(C)N1CCN(c2ccc(-c3nccc4[nH]c(CN5CC(F)C5)cc34)cc2)CC1 [Example A16, 2-[(3-fluoroazetidin-1-yl)methyl]-4-[4-(4-isopropylpiperazin-1-yl)phenyl]-1H-pyrrolo[3,2-c]pyridine]
inhibition at 1 µM [1]: 100% | inhibition at 1 µM [2]: 99%

CC(C)N1CCC(c2ccc(-c3nccc4[nH]c(CN5CCOCC5)cc34)cn2)CC1 [Example A64, 4-[[4-[6-(1-isopropyl-4-piperidyl)-3-pyridyl]-1H-pyrrolo[3,2-c]pyridin-2-yl]methyl]morpholine]
inhibition at 1 µM [1]: 13% | inhibition at 1 µM [2]: 4%

Cc1cc2c(cc(CCN3CCOCC3)n2C)c(-c2ccc(C3CCN(C(C)C)CC3)cc2)n1 [Example B31, 4-[2-[4-[4-(1-isopropyl-4-piperidyl)phenyl]-1,6-dimethyl-pyrrolo[3,2-c]pyridin-2-yl]ethyl]morpholine]
inhibition at 1 µM [1]: 100% | inhibition at 1 µM [2]: 100%

CN1CCN(c2cccc(-c3nccc4[nH]c(CN5CCOCC5)cc34)c2)CC1 [Example A61, 4-[[4-[3-(4-methylpiperazin-1-yl)phenyl]-1H-pyrrolo[3,2-c]pyridin-2-yl]methyl]morpholine]
inhibition at 1 µM [1]: 78% | inhibition at 1 µM [2]: 74%

Cc1nc(-c2ccc(N3CCN(C(C)C)CC3)cc2)c2cc(CCN3CCCC3)[nH]c2c1C [Example B10, 4-[4-(4-isopropylpiperazin-1-yl)phenyl]-6,7-dimethyl-2-(2-pyrrolidin-1-ylethyl)-1H-pyrrolo[3,2-c]pyridine]
inhibition at 1 µM [1]: 100% | inhibition at 1 µM [2]: 100%

CC(C)N1CCN(c2ccc(-c3nccc4[nH]c(CCN5CCOCC5)cc34)cc2)CC1 [Example B1, 4-[2-[4-[4-(4-isopropylpiperazin-1-yl)phenyl]-1H-pyrrolo[3,2-c]pyridin-2-yl]ethyl]morpholine]
inhibition at 1 µM [1]: 100% | inhibition at 1 µM [2]: 100%

COc1cc(-c2nc(C)cc3c2cc(CCN2CCOCC2)n3C)ccc1N1CCN(C(C)C)CC1 [Example B22, 4-[2-[4-[4-(4-isopropylpiperazin-1-yl)-3-methoxy-phenyl]-1,6-dimethyl-pyrrolo[3,2-c]pyridin-2-yl]ethyl]morpholine]
inhibition at 1 µM [1]: 100% | inhibition at 1 µM [2]: 100%

CCN1CCN(c2ccc(-c3nccc4[nH]c(CN5CCOCC5)cc34)cc2)CC1 [Example A3, 4-[[4-[4-(4-ethylpiperazin-1-yl)phenyl]-1H-pyrrolo[3,2-c]pyridin-2-yl]methyl] morpholine]
inhibition at 1 µM [1]: 100% | inhibition at 1 µM [2]: 100%

CN1CCN(c2ccc(-c3nccc4[nH]c(CN5CCOCC5)cc34)cc2)CC1 [Example A2, 4-[[4-[4-(4-methylpiperazin-1-yl)phenyl]-1H-pyrrolo[3,2-c]pyridin-2-yl]methyl] morpholine]
inhibition at 1 µM [1]: 90% | inhibition at 1 µM [2]: 100%

CC(C)N1CCN(c2ccc(-c3nccc4[nH]c(CCCN5CCOCC5)cc34)cc2)CC1 [Example C1, 4-[3-[4-[4-(4-isopropylpiperazin-1-yl)phenyl]-1H-pyrrolo[3,2-c]pyridin-2-yl]propyl]morpholine]
inhibition at 1 µM [2]: 100%

Cc1nc(-c2ccc(N3CCN(C(C)C)CC3)cc2)c2cc(CN3CCOCC3)[nH]c2c1C [Example A36, 4-[[4-[4-(4-isopropylpiperazin-1-yl)phenyl]-6,7-dimethyl-1H-pyrrolo[3,2-c]pyridin-2-yl]methyl] morpholine]
inhibition at 1 µM [1]: 100% | inhibition at 1 µM [2]: 99%

CC(C)N1CCN(c2ccc(-c3nccc4[nH]c(CN5CCCCC5)cc34)cc2)CC1 [Example A17, 4-[4-(4-isopropylpiperazin-1-yl)phenyl]-2-(1-piperidylmethyl)-1H-pyrrolo[3,2-c]pyridine]
inhibition at 1 µM [1]: 100% | inhibition at 1 µM [2]: 100%

Cc1cc2[nH]c(CN3CCC4(CC3)CC(C)C4)cc2c(-c2ccc(N3CCN(C(C)C)CC3)cc2)n1 [Example A30, 4-[4-(4-isopropylpiperazin-1-yl)phenyl]-6-methyl-2-[(2-methyl-7-azaspiro[3.5]nonan-7-yl)methyl]-1H-pyrrolo[3,2-c]pyridine]
inhibition at 1 µM [1]: 100% | inhibition at 1 µM [2]: 100%

Cc1cc2[nH]c(CN3CCC4(CC3)CC(O)C4)cc2c(-c2ccc(N3CCN(C(C)C)CC3)cc2)n1 [Example A29, 7-[[4-[4-(4-isopropylpiperazin-1-yl)phenyl]-6-methyl-1H-pyrrolo[3,2-c]pyridin-2-yl]methyl]-7-azaspiro[3.5] nonan-2-ol]
inhibition at 1 µM [1]: 97% | inhibition at 1 µM [2]: 82%

Cc1cc2c(cc(CCN3CCOCC3)n2C)c(-c2ccc(N3CCN(C(C)C)CC3)c(F)c2)n1 [Example B14, 4-[2-[4-[3-fluoro-4-(4-isopropylpiperazin-1-yl)phenyl]-1,6-dimethyl-pyrrolo[3,2-c]pyridin-2-yl]ethyl]morpholine]
inhibition at 1 µM [1]: 100% | inhibition at 1 µM [2]: 100%

CN1CCN(c2ccc(-c3nc(C4CC4)cc4[nH]c(CN5CCOCC5)cc34)cc2)CC1 [Example A34, 4-[[6-cyclopropyl-4-[4-(4-methylpiperazin-1-yl)phenyl]-1H-pyrrolo[3,2-c]pyridin-2-yl]methyl] morpholine]
inhibition at 1 µM [2]: 100%

c1cc2[nH]c(CN3CCOCC3)cc2c(-c2ccc(N3CCN(C4COC4)CC3)cc2)n1 [Example A81, 4-[[4-[4-[4-(oxetan-3-yl)piperazin-1-yl]phenyl]-1H-pyrrolo[3,2-c]pyridin-2-yl]methyl]morpholine]
inhibition at 1 µM [1]: 25% | inhibition at 1 µM [2]: 24%

CN1CCN(c2ccc(-c3nccc4c3cc(CN3CCOCC3)n4C)cc2)CC1 [Example A9, 4-[[1-methyl-4-[4-(4-methylpiperazin-1-yl)phenyl]pyrrolo[3,2-c]pyridin-2-yl]methyl] morpholine]
inhibition at 1 µM [2]: 100%

CN1CCN(Cc2ccc(-c3nccc4[nH]c(CN5CCOCC5)cc34)cc2)CC1 [Example A60, 4-[[4-[4-[(4-methylpiperazin-1-yl)methyl]phenyl]-1H-pyrrolo[3,2-c]pyridin-2-yl]methyl]morpholine]
inhibition at 1 µM [2]: 29%
